Reference: publication PMC2497451 (Anesthesia and analgesia, 2008)
Where two headings read alike, the source gives them in different places.

Tests used:
[1] = target: T1, adult human muscle nicotinic acetylcholine receptor (nAChR, α2βεδ) (Homo sapiens, UniProt P02708+Q04844+Q07001); test: cell-based
[2] = target: T1, adult human muscle nicotinic acetylcholine receptor (nAChR, α2βεδ); settings: 300 μM ACh, -50 mV, pH 7.3, room temperature; competitive

T1 sequence (P02708 21-457): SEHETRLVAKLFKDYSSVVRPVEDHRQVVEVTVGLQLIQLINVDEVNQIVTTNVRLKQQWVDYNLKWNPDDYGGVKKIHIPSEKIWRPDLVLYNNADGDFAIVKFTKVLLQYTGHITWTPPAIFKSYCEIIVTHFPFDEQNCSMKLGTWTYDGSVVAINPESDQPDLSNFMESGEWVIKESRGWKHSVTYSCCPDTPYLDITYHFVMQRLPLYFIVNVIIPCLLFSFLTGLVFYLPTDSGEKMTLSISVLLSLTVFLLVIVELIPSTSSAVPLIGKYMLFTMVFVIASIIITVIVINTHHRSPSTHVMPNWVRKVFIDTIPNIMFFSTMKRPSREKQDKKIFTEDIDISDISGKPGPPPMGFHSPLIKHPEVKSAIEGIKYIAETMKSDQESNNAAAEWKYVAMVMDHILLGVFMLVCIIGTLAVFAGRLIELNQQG
T1 sequence (Q04844 21-493): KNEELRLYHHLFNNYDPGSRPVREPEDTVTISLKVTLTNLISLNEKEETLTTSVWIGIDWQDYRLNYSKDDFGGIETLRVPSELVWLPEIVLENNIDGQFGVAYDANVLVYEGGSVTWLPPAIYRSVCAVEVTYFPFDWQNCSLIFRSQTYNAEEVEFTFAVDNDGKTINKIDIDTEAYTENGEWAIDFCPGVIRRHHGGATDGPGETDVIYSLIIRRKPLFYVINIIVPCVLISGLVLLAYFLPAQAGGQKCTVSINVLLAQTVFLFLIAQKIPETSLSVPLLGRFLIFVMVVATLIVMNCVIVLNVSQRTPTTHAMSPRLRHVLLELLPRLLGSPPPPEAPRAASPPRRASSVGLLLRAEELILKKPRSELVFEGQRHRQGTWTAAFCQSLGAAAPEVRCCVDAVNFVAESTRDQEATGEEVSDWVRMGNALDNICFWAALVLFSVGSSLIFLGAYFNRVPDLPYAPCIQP
T1 sequence (Q07001 22-517): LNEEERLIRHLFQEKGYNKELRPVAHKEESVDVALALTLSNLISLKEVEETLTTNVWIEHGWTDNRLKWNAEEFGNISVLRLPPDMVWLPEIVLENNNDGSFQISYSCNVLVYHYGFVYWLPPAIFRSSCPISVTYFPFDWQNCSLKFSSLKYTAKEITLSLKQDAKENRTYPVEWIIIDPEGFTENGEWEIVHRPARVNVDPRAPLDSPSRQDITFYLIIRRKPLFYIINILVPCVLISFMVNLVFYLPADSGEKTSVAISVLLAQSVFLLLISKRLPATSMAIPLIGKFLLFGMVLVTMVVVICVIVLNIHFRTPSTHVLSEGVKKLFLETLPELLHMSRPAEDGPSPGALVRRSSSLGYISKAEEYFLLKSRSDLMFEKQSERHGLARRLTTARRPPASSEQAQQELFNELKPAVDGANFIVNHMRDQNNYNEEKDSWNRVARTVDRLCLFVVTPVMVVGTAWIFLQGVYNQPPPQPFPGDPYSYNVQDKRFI
T1 sequence (P11230 24-501 partner): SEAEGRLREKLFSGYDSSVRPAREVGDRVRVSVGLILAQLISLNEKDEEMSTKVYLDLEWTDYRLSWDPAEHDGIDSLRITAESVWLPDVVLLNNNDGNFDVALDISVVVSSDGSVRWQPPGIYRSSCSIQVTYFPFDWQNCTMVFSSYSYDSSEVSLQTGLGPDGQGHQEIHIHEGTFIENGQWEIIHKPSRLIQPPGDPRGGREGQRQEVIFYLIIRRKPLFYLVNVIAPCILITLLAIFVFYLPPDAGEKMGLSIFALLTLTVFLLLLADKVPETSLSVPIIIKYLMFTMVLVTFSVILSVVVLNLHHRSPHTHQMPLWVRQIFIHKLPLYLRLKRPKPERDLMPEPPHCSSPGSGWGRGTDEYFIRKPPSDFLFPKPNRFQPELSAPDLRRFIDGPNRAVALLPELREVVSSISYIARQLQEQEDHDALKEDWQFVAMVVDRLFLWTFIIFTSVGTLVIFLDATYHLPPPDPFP

| Compound | IC50 [1] [µM] | IC50 [2] [µM] |
| --- | --- | --- |
| COc1ccc(C[C@@H]2c3cc(OC)c(OC)cc3CC[N@+]2(C)CCC(=O)OCCCCCOC(=O)CC[N@@+]2(C)CCc3cc(OC)c(OC)cc3[C@H]2Cc2ccc(OC)c(OC)c2)cc1OC [cisatracurium] | 0.01 ± 0.001 |  |
| COc1ccc(CC2c3cc(OC)c(OC)cc3CC[N+]2(C)CCC(=O)OCCCCCOC(=O)CC[N+]2(C)CCc3cc(OC)c(OC)cc3C2Cc2ccc(OC)c(OC)c2)cc1OC (stereo not shown) [atracurium] |  | 0.017 ± 0.002 |
| COc1cc2c3cc1Oc1cc(ccc1O)C[C@@H]1c4c(cc(OC)c(O)c4Oc4ccc(cc4)C[C@@H]3N(C)CC2)CC[N+]1(C)C [(+)-tubocurarine] | 0.024 ± 0.002 |  |
| CC(=O)O[C@H]1C[C@@H]2CC[C@@H]3[C@H](CC[C@@]4(C)[C@H]3C[C@H]([N+]3(C)CCCCC3)[C@@H]4OC(C)=O)[C@@]2(C)C[C@@H]1N1CCCCC1 [vecuronium] |  | 0.015 ± 0.002 |
| CC(=O)O[C@H]1C[C@@H]2CC[C@@H]3[C@H](CC[C@@]4(C)[C@H]3C[C@H]([N+]3(C)CCCCC3)[C@@H]4OC(C)=O)[C@@]2(C)C[C@@H]1[N+]1(C)CCCCC1 [pancuronium] | 0.0063 ± 0.0008 |  |
| COc1ccc2cc1Oc1cc3c(cc1OC)CC[N+](C)(C)[C@H]3Cc1ccc(cc1)Oc1c(OC)c(OC)cc3c1[C@@H](C2)[N+](C)(C)CC3 [metocurine] |  | 0.018 ± 0.002 |
| C=CC[N+]1([C@H]2C[C@H]3[C@@H]4CC[C@H]5C[C@H](O)[C@@H](N6CCOCC6)C[C@]5(C)[C@H]4CC[C@]3(C)[C@H]2OC(C)=O)CCCC1 [rocuronium] |  | 0.017 ± 0.002 |
